From ChEMBL document CHEMBL5537185, “Discovery of the First-in-Class RORγ Covalent Inhibitors for Treatment of Castration-Resistant Prostate Cancer” (J Med Chem, 2024)
pIC50: −log10 of the molar value.

How the values were obtained:
[1] = target: T1, Nuclear receptor ROR-gamma (Homo sapiens, UniProt P51449); assay: Inhibition of Gal4-fused RORgamma LBD (unknown origin) expressed in HEK293T cells incubated for 48 hrs by luciferase based assay; assay type: cell-based
T1 sequence (P51449 whole entry): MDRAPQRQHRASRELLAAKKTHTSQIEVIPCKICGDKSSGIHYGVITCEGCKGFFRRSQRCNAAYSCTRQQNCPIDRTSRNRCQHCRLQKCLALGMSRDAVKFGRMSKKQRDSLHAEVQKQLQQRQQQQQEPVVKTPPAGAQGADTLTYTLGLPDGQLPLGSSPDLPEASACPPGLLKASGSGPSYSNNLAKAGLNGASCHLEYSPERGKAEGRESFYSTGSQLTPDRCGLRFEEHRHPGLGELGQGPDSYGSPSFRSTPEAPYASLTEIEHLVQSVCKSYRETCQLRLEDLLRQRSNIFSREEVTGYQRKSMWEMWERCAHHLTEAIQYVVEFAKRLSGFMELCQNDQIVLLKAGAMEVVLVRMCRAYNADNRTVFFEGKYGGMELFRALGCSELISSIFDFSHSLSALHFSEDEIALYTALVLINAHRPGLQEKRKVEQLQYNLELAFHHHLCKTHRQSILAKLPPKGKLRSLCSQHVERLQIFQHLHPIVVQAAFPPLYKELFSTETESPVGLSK

CWR22R [2] = assay: Antiproliferative activity against human 22Rv1 cells incubated for 4 days by CCK8 assay; settings: 22Rv1, 96 h
LNCaP C4-2B = assay: Antiproliferative activity against human LNCaP C4-2B cells incubated for 4 days by CCK8 assay; settings: 96 h
LNCaP = assay: Antiproliferative activity against human LNCaP cells incubated for 4 days by CCK8 assay; settings: 96 h
CWR22R [3] = assay: Antitumor activity against human 22Rv1 cells xenografted in NOD/SCID mouse assessed as tumor growth inhibition at 5 mg/kg, ip administered five times a week for 2 weeks and measured two times per week; assay type: functional; settings: 22Rv1, 336 h, read-out: TGI
[4] = Metabolic stability in mouse liver microsomes assessed as half life at 0.1 uM preincubated for 10 mins followed by NADPH addition and measured upto 60 mins by LC-MS/MS analysis; assay type: ADME, Microsome; settings: time < 70 min

C=CC(=O)Nc1ccccc1-c1ccc(NC(=O)c2ccc(S(C)(=O)=O)cn2)cc1C
pIC50 [1]: 5.26

C=CC(=O)Nc1ccccc1-c1ccc(NC(=O)Cc2ccc(S(=O)(=O)CC)cc2)cc1C(F)(F)F
pIC50 (CWR22R [2]): 5.59
pIC50 (LNCaP C4-2B): 5.96
pIC50 (LNCaP): 5.75
pIC50 [1]: 5.66

C=CC(=O)Nc1ccccc1-c1ccc(NC(=O)Cc2ccc(S(C)(=O)=O)cc2)cc1C
pIC50 [1]: 5.91

C=CC(=O)Nc1ccccc1-c1ccc(NC(=O)Cc2cccc(C#N)c2)cc1C
pIC50 [1]: 5.69

CCS(=O)(=O)c1ccc(CC(=O)Nc2cc(Cl)c(-c3ccccc3OC(F)(F)F)c(Cl)c2)cc1
inhibition in vivo at 5 mg/kg (CWR22R [3]): 31.1%

CCC(=O)Nc1ccccc1-c1ccc(NC(=O)Cc2ccc(S(=O)(=O)CC)cc2)cc1C
pIC50 [1]: 5.53

C=CC(=O)Nc1ccccc1-c1ccc(NC(=O)Cc2ccc(C#N)cc2)cc1C
pIC50 [1]: 5.63

C=CC(=O)Nc1ccccc1-c1ccc(NC(=O)Cc2ccc(S(=O)(=O)CC)cc2)cn1
pIC50 [1]: 5.21

C=CC(=O)Nc1ccccc1-c1ccc(NC(=O)Cc2ccccc2[N+](=O)[O-])cc1C
pIC50 [1]: 5.52

CCC(=O)Nc1ccccc1-c1ccc(NC(=O)Cc2ccc(S(=O)(=O)CC)cc2)cc1Cl
pIC50 (CWR22R [2]): < 5.00
pIC50 (LNCaP C4-2B): < 5.00
pIC50 (LNCaP): < 5.00

C=CC(=O)Nc1ccccc1-c1ccc(NC(=O)Cc2ccc(S(=O)(=O)CC)cc2)cc1C
pIC50 (CWR22R [2]): 5.65
pIC50 (LNCaP C4-2B): 6.00
half-life at 0.1 µM [4]: 10 min
pIC50 (LNCaP): 6.04
